Results reported in paper PMC9736157 (Molecules, 2022).
Like-named read-outs stand apart in the source and are kept apart here.

Legend:
[1] = system: A375 melanoma cell line; experiment: Antiproliferative activity, CellTiter-Glo, A375; assay type: cell-based; settings: Homo sapiens, A-375, A375, 72 h
Method: Based on the previous preliminary tests, we sought to investigate the ability of synthesized compounds 5–15 and reference 1 in inhibiting the proliferation of BRAF^V600E mutant cancer cells. A first screening was conducted in A375 melanoma cell lines (Table 1, Figure S2). Encorafenib was employed for comparison.
(§1) The ability of compounds 5, 10, 11, 15–selected based on their chemical diversity–to inhibit cell proliferation was then tested both in A375 and in Colo205 cancer cell lines. […] P5B was obtained by joining the BRAF inhibitor BI 882370 to pomalidomide through a five PEG unit spacer (Figure S3). In compound P5B, the linker length was of 17 atoms, the same length of the spacer used to generate our compound 10. A375 and Colo205 cells were treated for 72 h with compounds 5, 10, 11, 15, and P5B, and the antiproliferative activity was measured by a luminescent ATP-based assay, which determines the number of viable cells based on their metabolic activity. […] However, P5B was more efficient in inhibiting tumor cell viability in comparison with the other selected compounds.
(§2) Cell viability was evaluated by means of CellTiter-Glo Luminescent Assay (Promega), which allows users to measure the ATP in the cell supernatant. The assay was performed according to manufacturer’s instructions. In brief, 4.10^3 A375 or Colo205 were seeded into 96-well plates and allowed to adhere at the wall overnight. Cells were treated for 72 h with BRAF inhibitor compounds. Then, 90 µL of the cell culture medium was transferred in a white 96-well plate, to which 10 µL of CellTiter-Glo was added before measurement of luminescence. Luminescence was measured by the SPARK M10 (Tecan, Männedorf, Switzerland) plate reader.

[2] = system: Colo205 cells; experiment: Cell permeability in Colo205 cells; assay type: in vitro ADME; settings: Colo205 cells (Table S1)
[3] = Stability in RPMI cell medium; assay type: in vitro ADME; settings: RPMI cell culture medium with 10% FBS, RPMI with 10% FBS, 37 °C
Method: (§3) Stability of compounds was determined in RPMI medium and in human serum. DMSO stock solutions of compounds (10 mM) was added to RPMI (Sigma–Aldrich, Darmstadt, Germany) competed with 10% fetal bovine serum (FBS) plus 2 mM glutamine, penicillin (100 IU/mL), and streptomycin (100 μγ/mL; Sigma–Aldrich, Darmstadt, Germany) or to human serum (sterile-filtered from human male AB plasma, Sigma–Aldrich, Darmstadt, Germany), to obtain the 100 μM final concentration with 1% of DMSO. The resulting solutions were incubated at 37 °C for 48 h. At appropriate time intervals (0, 1, 5, 24 and 48 h), 300 µL of the reaction mixture was withdrawn and added to 300 µL of acetonitrile 0.1% TFA. The samples were vortexed, sonicated for 3 min and then centrifuged for 5 min at 2500× g. The clear supernatant was filtered through a PTFE 0.45 μm filter (VWR) and analyzed by RP-HPLC. Each experiment was independently repeated at least three times, and results are expressed as a percentage of unmodified compound over time. The half-life was determined by fitting the data with a one phase exponential decay equation (Graph Pad, Prism software vr. 5, GraphPad Software Inc., San Diego, CA, USA). […]
(§4) The column effluent was monitored at 226 and 300 nm, referenced against a 800 nm wavelength. […] Quantitation of compounds was obtained by calibration curves (linearity determined in a concentration range of 1–100 µM, r^2 > 0.99).

[4] = target: T1, B-RAF (V600E) (Homo sapiens, UniProt P15056, V600E); experiment: BRAF^V600E inhibition assay (B-RAF (V600E) Kinase Assay Kit, Kinase-Glo MAX); assay type: biochemical; settings: isolated BRAF^V600E, ATP 10 μM, 30 °C, 45 min; three experiments in duplicate; read-out: BRAF (V600E) Kinase Activity IC50 (nM ± SEM)
T1 construct: purchased BPS Bioscience
Method: In a 96-well plate, the different inhibitor solutions in DMSO were mixed with Buffer, ATP (10 μM) and Raf substrate. […] After a 15 min delay to equilibrate plate temperature, 50 μL of Kinase-Glo Max was added in each well, and the luminescence was measured according to supplier’s instruction. The results, reported as IC50 ± S.E.M., were calculated with GrapPad Prism 7 and derive from three different experiments run in duplicate.

[5] = Stability in human serum; assay type: in vitro ADME; settings: male, 37 °C
Method: as §3, §4

[6] = system: T2, BRAF^V600E; experiment: Western blot, BRAF^V600E degradation in A375; assay type: cell-based; settings: for BRAF^V600E degradation: A375, 24 h, 100–500 nM; for BRAF^V600E degradation at higher concentration: A375, up to 10 µM (Figure S4)
T2 construct: endogenous in cells; host or cells: A375 and Colo205 cell lines
Method: (§5) Finally, we investigated the capability of the most antiproliferative compounds in interfering with BRAF pathway, favoring target degradation. To this end, Western blot analysis was conducted 24 h after incubation with 10 and 11 in both A375 and Colo205 cell lines. […] This observation was consistent with their ability to inhibit BRAF^V600E.
(§6) To measure the capability of our compounds to interfere with BRAF pathway, pre-treated A375 and Colo205 cells were lysed. We then performed protein analysis through Western blot by using the following primary antibodies: anti-phospho ERK 1/2 (clone E10; dilution 1:1000; Cell Signaling Technology, Danvers, MA, USA) and anti-ERK (clone 137F5; dilution 1:1000; Cell Signaling Technology); anti-phospho MEK (clone S217/221; dilution 1:1000; Cell Signaling Technology); anti-MEK1,2 (clone 9122; dilution 1:1000; Cell Signaling Technology); anti-BRAF v600e (dilution 1:1000; Abcam, Cambridge, UK); and anti-total BRAF (dilution 1:1000; ThermoFisher, Waltham, MA, USA). Vinculin (clone E1E9B; dilution 1:1000; Cell Signaling Technology) was used as a loading control. The total protein amount was determined using the bicinchoninic acid (BCA) protein assay reagent (Thermo Scientific, Waltham, MA, USA). Equivalent amounts of protein were separated by SDS–PAGE on precast Bolt 4–12% Bis-Tris gel (Invitrogen, Carlsbad, CA, USA). Proteins were then transferred from gel to nitrocellulose with a Trans-Blot Turbo transfer system (Biorad, Hercules, CA, USA), probed with goat anti-rabbit IgG (H+L) secondary antibody, HRP conjugate (Invitrogen) or goat anti-mouse IgG (H+L) secondary antibody, HRP conjugate (Jackson ImmunoResearch Inc., Langcaster, PA, USA), and detected using enhanced chemiluminescence technique (Western Lightning Plus-ECL, Enhanced Chemiluminescence Substrate; Perkin Elmer, catalog # NEL105001EA, Waltham, MA, USA).

[7] = system: Colo205 cell line; experiment: Antiproliferative activity, CellTiter-Glo, Colo205; assay type: cell-based; settings: Homo sapiens, COLO 205; Colo205, 72 h (Figure 6b); read-out: Antiproliferative activity IC50 (nM ± SEM)
Method: as §1, §2

[8] = system: phosphorylation of MEK and ERK; experiment: Western blot, BRAF signaling in A375; assay type: cell-based; settings: A375, 24 h incubation
Method: as §5
(§7) To measure the capability of our compounds to interfere with BRAF pathway, pre-treated A375 and Colo205 cells were lysed. […] The total protein amount was determined using the bicinchoninic acid (BCA) protein assay reagent (Thermo Scientific, Waltham, MA, USA). […] Proteins were then transferred from gel to nitrocellulose with a Trans-Blot Turbo transfer system (Biorad, Hercules, CA, USA), probed with goat anti-rabbit IgG (H+L) secondary antibody, HRP conjugate (Invitrogen) or goat anti-mouse IgG (H+L) secondary antibody, HRP conjugate (Jackson ImmunoResearch Inc., Langcaster, PA, USA), and detected using enhanced chemiluminescence technique (Western Lightning Plus-ECL, Enhanced Chemiluminescence Substrate; Perkin Elmer, catalog # NEL105001EA, Waltham, MA, USA).

[9] = system: phosphorylation of MEK and ERK; experiment: Western blot, BRAF signaling in Colo205; assay type: cell-based; settings: Colo205, 24 h incubation
Method: as §5, §7

[10] = system: T2, BRAF^V600E; experiment: Western blot, BRAF^V600E degradation in Colo205; assay type: cell-based; settings: for BRAF^V600E degradation: Colo205, 24 h, 100–500 nM; for BRAF^V600E degradation at higher concentration: Colo205, up to 10 µM (Figure S4)
Method: as §5, §6

[11] = first screening (Table 1), read-out: Antiproliferative Activity IC50 ± SEM
[12] = second set of experiments (Figure 6a), read-out: Antiproliferative activity IC50 (nM ± SEM)

T1 sequence (P15056 whole entry V600E): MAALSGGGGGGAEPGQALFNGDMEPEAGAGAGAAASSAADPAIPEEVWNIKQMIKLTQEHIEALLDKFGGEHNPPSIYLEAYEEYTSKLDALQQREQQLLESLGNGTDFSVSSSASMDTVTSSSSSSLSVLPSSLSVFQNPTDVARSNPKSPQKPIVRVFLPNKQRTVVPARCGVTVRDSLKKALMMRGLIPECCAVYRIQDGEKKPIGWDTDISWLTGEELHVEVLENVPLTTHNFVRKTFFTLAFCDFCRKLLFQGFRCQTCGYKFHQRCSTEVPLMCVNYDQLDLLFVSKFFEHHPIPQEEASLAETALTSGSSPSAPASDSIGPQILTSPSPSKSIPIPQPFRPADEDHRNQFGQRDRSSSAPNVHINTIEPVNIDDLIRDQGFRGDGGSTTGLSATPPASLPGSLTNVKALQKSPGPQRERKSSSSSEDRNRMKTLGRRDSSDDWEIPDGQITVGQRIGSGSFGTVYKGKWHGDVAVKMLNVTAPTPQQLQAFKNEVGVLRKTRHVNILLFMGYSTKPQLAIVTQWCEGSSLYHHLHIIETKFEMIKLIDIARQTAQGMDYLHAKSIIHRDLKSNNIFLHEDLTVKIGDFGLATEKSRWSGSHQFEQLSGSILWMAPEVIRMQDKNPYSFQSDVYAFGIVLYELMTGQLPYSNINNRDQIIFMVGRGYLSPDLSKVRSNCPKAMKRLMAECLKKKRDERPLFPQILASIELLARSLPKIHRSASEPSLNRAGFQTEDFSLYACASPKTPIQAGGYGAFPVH

IC50 [1, 11] | half-life at 100 μM [3] | IC50 [4] | half-life at 100 μM [5] | IC50 [1, 12] | IC50 [7] | Compound | cell permeability [2] | BRAF^V600E degradation [6] | BRAF^V600E degradation at higher concentration [6] | phosphorylation of MEK and ERK [8] | phosphorylation of MEK and ERK [9] | BRAF^V600E degradation [10] | BRAF^V600E degradation at higher concentration [10]
1760 ± 287 nM | 21 h | 57 ± 7 nM | 24 h |  |  | CC(C)n1cc(-c2ccnc(NC[C@H](C)NC(=O)CCOCCOCCOCCNc3cccc4c3C(=O)N(C3CCC(=O)NC3=O)C4=O)n2)c(-c2cc(Cl)cc(NS(C)(=O)=O)c2F)n1 (stereo partly drawn) [Compound 8, N-((S)-1-((4-(3-(5-chloro-2-fluoro-3-(methylsulfonamido)phenyl)-1-isopropyl-1H-pyrazol-4-yl)pyrimidin-2-yl)amino)propan-2-yl)-3-(2-(2-(2-((2-(2,6-dioxopiperidin-3-yl)-1,3-dioxoisoindolin-4-yl)amino)ethoxy)ethoxy)ethoxy)propanamide] | ability to reach the cytosolic compartment |  |  |  |  |  | 
132 ± 1.95 nM | 19 h | 75 ± 17 nM | 23 h | 194 ± 36 nM | 31 ± 10 nM | CC(C)n1cc(-c2ccnc(NC[C@H](C)NC(=O)CCOCCOCCOCCOCCOCCNc3cccc4c3C(=O)N(C3CCC(=O)NC3=O)C4=O)n2)c(-c2cc(Cl)cc(NS(C)(=O)=O)c2F)n1 (stereo partly drawn) [Compound 10, N-((S)-1-((4-(3-(5-chloro-2-fluoro-3-(methylsulfonamido)phenyl)-1-isopropyl-1H-pyrazol-4-yl)pyrimidin-2-yl)amino)propan-2-yl)-1-((2-(2,6-dioxopiperidin-3-yl)-1,3-dioxoisoindolin-4-yl)amino)-3,6,9,12,15-pentaoxaoctadecan-18-amide] |  | not able to induce BRAF^V600E degradation | no degradation of the target protein | able to decrease phosphorylation of MEK and ERK | able to decrease phosphorylation of MEK and ERK | not able to induce BRAF^V600E degradation | no degradation of the target protein
389 ± 15.1 nM |  | 43 ± 16 nM |  | 417 ± 33 nM | 104 ± 20 nM | CC(C)n1cc(-c2ccnc(NC[C@H](C)NC(=O)CCOCCOCCn3cc(CNc4cccc5c4C(=O)N(C4CCC(=O)NC4=O)C5=O)nn3)n2)c(-c2cc(Cl)cc(NS(C)(=O)=O)c2F)n1 (stereo partly drawn) [Compound 11, N-((S)-1-((4-(3-(5-chloro-2-fluoro-3-(methylsulfonamido)phenyl)-1-isopropyl-1H-pyrazol-4-yl)pyrimidin-2-yl)amino)propan-2-yl)-3-(2-(2-(4-(((2-(2,6-dioxopiperidin-3-yl)-1,3-dioxoisoindolin-4-yl)amino)methyl)-1H-1,2,3-triazol-1-yl)ethoxy)ethoxy)propanamide] |  | not able to induce BRAF^V600E degradation | no degradation of the target protein | able to decrease phosphorylation of MEK and ERK | able to decrease phosphorylation of MEK and ERK | not able to induce BRAF^V600E degradation | no degradation of the target protein
